These results are taken from US20250354223A1, “METHODS AND KITS FOR D[…] SUSCEPTIBILITY” (Siemens Healthcare Diagnostics Inc., priority 2022, published 2025).

Holding throughout (assay type): cell-based
The test system of experiment [1] is E. coli. Briefly: EMA (ethidium monoazide) + blue light treatment followed by PCR with 16SrDNA specific primers, with vs without antibiotic. The protocol: FIG. 3 illustrates a method of determining antibiotic susceptibility of micro-organisms, according to yet another embodiment. At step 301, the sample comprising the micro-organism is received. At step 302, at least one first portion of the sample is incubated with an antibiotic and at least one second portion of the sample is incubated with no antibiotic. The micro-organisms in the sample are required to be grown/cultured or incubated for the shortest possible time in which discernible nucleic acid differences can be measured. For example, the micro-organisms are cultured or incubated for a range of at least one to five doubling cycles. Antibiotics which are cell wall synthesis inhibitors (beta lactam) and cell membrane inhibitors (colistin) affect the integrity of cell wall of the micro-organisms. This facilitates determination of antibiotic susceptibility. Once the doubling cycle range is met for the at least one first and second portion of the sample, at step 303, an intercalating dye is introduced to the at least one first portion of the sample and the at least one second portion of the sample. […]
Overnight E. coli culture that was susceptible to ampicillin was further sub-cultured for 2-3 hours to log phase. Cells in this culture was quantified using OD600nm values. […]

The test system of experiment [2] is E. coli. As to the kind of experiment: RT-PCR of extracted RNA with 16SrDNA specific primers, with vs without antibiotic. The settings on record: ampicillin-susceptible E. coli, 1×10^6 cells/mL, ampicillin 100 μg/mL, 37° C., 60 minutes; FIG. 10 table 1. The procedure: (§1) Overnight E. coli culture that was susceptible to ampicillin was further sub-cultured for 2-3 hours to log phase. Cells in this culture were quantified using OD600nm values. The culture was diluted to 1×10^6 cells/mL and 10 mL was aliquoted into two, 50 ml conical flask. Ampicillin at 100 μg/mL was added to one of the conical flasks. The two flasks, with and without antibiotic were incubated at 37° C. and two, 50 μL aliquots were taken from each flask at regular intervals (0, 30, 40 and 60 mins). Nucleic acid (NA) was extracted from all sample aliquots using the VERSANT® brand Sample preparation 1.0 reagent kit. The NA samples were then subjected to PCR and RT-PCR (reverse transcription-PCR) using 16SrDNA specific primers (each DNA extracted sample was split into two replicates for PCR). […] In this experiment, all RNA samples were treated with DNAse for 60 min at 37° C. before RT-PCR. In a subsequent experiment it was shown that a treatment as low as 5 minutes was also sufficient to eliminate DNA from the sample.

Experiment [3] relates to E. coli. Briefly: PCR of extracted DNA with 16SrDNA specific primers, with vs without antibiotic (no EMA). The settings on record: ampicillin-susceptible E. coli, 1×10^6 cells/mL, ampicillin 100 μg/mL, 37° C. The procedure:
as §1
Overnight E. coli culture that was susceptible to ampicillin was further sub-cultured for 2-3 hours to log phase. Cells in this culture was quantified using OD600nm values. The culture was diluted to 1×10^6 cells/mL and 10 mL was aliquoted into two, 50 ml conical flasks. Ampicillin at 100 μg/mL was added to one of the conical flasks. […]

In the case of `CC1(C)S[C@@H]2[C@H](NC(=O)[C@H](N)c3ccccc3)C(=O)N2[C@H]1C(=O)O` [ampicillin], the “effect of including EMA on the difference in cycle threshold values between first (ampicillin) and second (no ampicillin) portion” value in experiment [1] (FIG. 4, graph 402 (ampicillin and EMA) vs graph 401 (ampicillin only)) was “improves the difference in the cycle threshold values”. In experiment [1] (ampicillin-susceptible E. coli, 1×10^6 cells/mL, ampicillin 100 μg/mL, 37° C., within 30 minutes, EMA + blue LED light, FIG. 14 table 1), the “difference in Ct between ampicillin exposed and unexposed, samples exposed to EMA” value is “large difference in Ct”. Also, in experiment [2], the “detection of ampicillin susceptibility by RNA levels” value was “able to detect for ampicillin susceptibility at 60 minutes”. In experiment [3] (60 min incubation, FIG. 10 table 2), the “distinction of antibiotic and no antibiotic samples by DNA levels” value is “did not distinguish antibiotic and no antibiotic samples”. In experiment [3] (up to 30 mins, no EMA, FIG. 14 table 2), the “difference in Ct between ampicillin exposed and unexposed, samples not exposed to EMA+blue light” value is “did not show any difference”.
